Assay results published in the NIST ThermoML archive (doi:10.1021/acs.jced.7b00788).

Columns and labels:
[1] = xn = mol fraction of the nth substance listed; conditions: 100 kPa, Liquid, x1 = 1; for viscosity: Concentric cylinders viscometry; for mass density: Vibrating tube method
[2] = 100 kPa, Liquid; for viscosity: Concentric cylinders viscometry; for mass density: Vibrating tube method

O [water] + CCOP(=O)([O-])OCC.CCn1cc[n+](C)c1
[1]
Conditions | mass density [kg/m3] | viscosity [mPa·s]
293.15 K | 1000.1 | 1
303.15 K | 998 | 0.805
313.15 K | 994.3 | 0.651
323.15 K | – | 0.544
333.15 K | 985.2 | 0.472
343.15 K | 979.6 | 0.417
353.15 K | 973.3 | 0.342

O [water]
[2]
Conditions | mass density [kg/m3] | viscosity [mPa·s]
293.15 K | 1000.1 | 1
303.15 K | 998 | 0.805
313.15 K | 994.3 | 0.651
323.15 K | – | 0.544
333.15 K | 985.2 | 0.472
343.15 K | 979.6 | 0.417
353.15 K | 973.3 | 0.342

C[S+](C)[O-] [dimethyl sulfoxide]
[2]
Conditions | mass density [kg/m3] | viscosity [mPa·s]
293.15 K | 1101.2 | 2.31
303.15 K | 1091.2 | 1.89
313.15 K | 1081.1 | 1.57
323.15 K | 1071.1 | 1.33
333.15 K | 1061.2 | 1.15
343.15 K | 1051.3 | 1.01
353.15 K | 1041.1 | 0.893
363.15 K | 1031.3 | 0.799
373.15 K | 1021.4 | 0.721

CCOP(=O)([O-])OCC.CCn1cc[n+](C)c1 [1-ethyl-3-methylimidazolium diethyl phosphate]
[2]
Conditions | mass density [kg/m3] | viscosity [mPa·s]
293.15 K | 1151.2 | 540
303.15 K | 1144.2 | 274
313.15 K | 1137.4 | 154
323.15 K | 1130.7 | 94
333.15 K | 1124.1 | 61.2
343.15 K | 1117.5 | 42.1
353.15 K | 1111 | 30.2
363.15 K | 1104.5 | 22.5
373.15 K | 1098.2 | 17.3
